Test results reported in PMC12040169 (PLOS Biology, 2025).

Experiment: in vitro
Conditions: human, hela cells

Structure (SMILES)	viability at 28.5 h, 10 µM [%]
CC(C)CN(/C=N/c1nc(OC(=O)N(c2ccccc2)c2ccccc2)nc2c1ncn2C1CC(O)C(CO)O1)CC(C)C (centres unmarked) [CBK201170]	93

Same assay, conditions: human, hela cells, % viability

Structure (SMILES)	viability at 28.5 h, 10 µM [%]
O=c1cccc2n1CC1CC2CN(Cc2cccc(OCc3ccccc3)c2)C1 (centres unmarked) [CBK262426]	102
O=C(Nc1nc2nccc(-c3ccccc3)n2n1)c1cccc([N+](=O)[O-])c1 [CBK265414]	87.6
CSCCCNC(=O)N1CCCC(CO)C1 (centres unmarked) [CBK156031]	106
CC(C)(C)c1ccc(S(N)(=O)=O)cc1NC(=O)Nc1cccc(F)c1 [CBK093643]	100
CCC(C)(C)c1ccc(S(=O)(=O)Nc2n[nH]cc2Br)cc1 [CBK043734]	85
CCC(C)(NC(=O)c1ccn(-c2cc(C)ccc2OC)n1)C(=O)OC (centres unmarked) [CBK305282]	78.7
N#CCCN(C(=O)NCCN1CCOCC1)C1CCCCC1 [CBK156357]	107
Cc1cc2ncc3c(n2n1)CC1CCC3N1C(=O)c1cccs1 (centres unmarked) [CBK284415]	103
O=C(CC(NC1CCCCC1)C(=O)O)Nc1cccc(Cl)c1 (centres unmarked) [CBK266916]	98.5
CC(C)(C)c1cc(CN(Cc2cc(C(C)(C)C)c(O)c(C(C)(C)C)c2)/N=C\c2ccccc2O)cc(C(C)(C)C)c1O [CBK261990]	101
CCn1nc(C2CCCC2)nc1-c1cnc2ccnn2c1C [CBK306626]	87.1
COCc1cc(C[C@@H]2C[C@H](NS(C)(=O)=O)C2(C)C)no1 [CBK289252]	92.5
Cc1cc(C(=O)NCc2ccccc2)n[nH]1 [CBK200198]	95.7
CCOC(=O)c1[nH]c(C)c(/C=C/C2=CCN(C)CC2)c1C [CBK283761]	99.3
O=C(N/N=C/C=N/NC(=O)c1ccccc1O)c1ccccc1O [CBK261430]	98.2
Cc1cc(CNC(=O)COc2ccc(C#N)cc2)c2ccccc2n1 [CBK270129]	87.6
COC(=O)Cc1ccc(NC(=S)N2CCC(C(N)=O)(N3CCCCC3)CC2)cc1 [CBK266101]	97.6
CCN1CC2(CCC1=O)CCN(Cc1nnc(-c3cccnc3)o1)CC2 [CBK307137]	92.6
O=C(O)c1ccccc1SC1CC(=O)N(CCc2ccccc2)C1=O (centres unmarked) [CBK269321]	93.6
CNC(=S)N1CCN(c2nccnc2NS(=O)(=O)Cc2ccccc2)CC1 [CBK049044]	102
CC(C)(C)c1cc(CCC(=O)N2CCN(C(=O)CCc3cc(C(C)(C)C)c(O)c(C(C)(C)C)c3)CC2)cc(C(C)(C)C)c1O [CBK261963]	91.1
Cc1c(F)cccc1CNCc1ccc(CNC(=O)OC(C)(C)C)cc1 [CBK056708]	103

Structure (SMILES)	viability at 28.5 h, 10 µM [%]
CCOC(=O)c1ccc(Cn2c(-c3ccccc3)nnc2-c2ccccc2)o1 [CBK267691]	87.8
CC(C(=O)N(C)C)n1cccc1 (centres unmarked) [CBK012421]	86.4
O=C(Nc1cccc(N2CCNCC2)c1)C1CCCO1 (centres unmarked) [CBK004768T]	93.4
COc1ccc(CCC(=O)Nc2cccc(-c3ccc(OC4CCNCC4)cc3)c2)cc1OC [CBK131925T]	100
N=c1n(CC(=O)O)c2ccccc2n1Cc1ccccc1 [CBK286531]	108
COc1ccc(CNC(=O)N(Cc2cccnc2)Cc2ccc3c(c2)OCO3)cc1OC [CBK159456]	87.3
COc1cccc2cc(C(=O)Nc3ccc4[nH]ccc4c3)oc12 [CBK149819]	91.5
N[C@H]1C[C@H]2C(=O)NC[C@@H](CCC(=O)NCc3cccs3)N2C1 [CBK289005]	86.6
Nc1ncc(-c2ccc(C(=O)N3CCOCC3)cc2)cc1C(=O)NCc1c(F)cccc1F [CBK158569]	80.6
Cc1nc(C(C)NC(=O)c2cc(C3CC3)nc3c2c(C)nn3C)cs1 (centres unmarked) [CBK304779]	93.7
S=C(NNC(=S)Nc1ccc(Cl)c(Cl)c1)Nc1cccnc1 [CBK268483]	96.2
COC(=O)c1ccc(NC(=O)N(Cc2cnn(C)c2)CC(C)C)cc1Cl [CBK304387]	93.1
CC(C)NC(=O)N[C@H]1CCN2C(=O)N(c3cccc4nsnc34)C(=O)[C@@H]2C1 [CBK289539]	111
COc1ccccc1Nc1nc(N)nc(CSc2nc3ccccc3s2)n1 [CBK266747]	95.7
CC(C)(CN)c1ccccc1 [CBK012106C]	81.6
c1ccc(CCCN2CCN(Cc3ccccc3)CC2)cc1 [CBK261878]	90.1
CCc1cc(Br)ccc1S(=O)(=O)Nc1ccccc1O [CBK043877]	92
Cn1c(=O)c2c(nc(CN3CCCCC3)n2CCCO)n(C)c1=O [CBK269280]	106
CCC(O)CNS(=O)(=O)c1ccc(OC(F)(F)F)cc1 (centres unmarked) [CBK043557]	97.9
O=C(O)Cc1nnc(CNc2ccc(Cl)cc2)[nH]1 [CBK286651]	81.7
CC1CN(c2cc(CNc3ncccc3Cl)ccn2)CCO1 (centres unmarked) [CBK306456]	88.3
COc1ccc2[nH]c(C(=O)O)c(CCNC(C)=O)c2c1 [CBK260943N]	113

Structure (SMILES)	viability at 28.5 h, 10 µM [%]
CC(C)(C)OC(=O)N1CCc2[nH]nc(Nc3ccccc3)c2C1 [CBK281541]	80
COC(=O)c1ccsc1NS(=O)(=O)Cc1ccccc1 [CBK039067]	108
CN(C)c1ccc(CCNC(=O)c2c3c(nn2C)CCCC3)cc1 [CBK281824]	96.4
CC1=NN(c2ccc(S(N)(=O)=O)cc2)C(=O)/C1=C\c1ccc(-c2ccc(Cl)c([N+](=O)[O-])c2)o1 [CBK263612]	98.8
O=C(C1CCCO1)N1C2CCC1CC(O)(c1ccco1)C2 (centres unmarked) [CBK284035]	83
CN(C)C(=O)Cc1ccc(Cn2ccnc(N3CCC(Sc4ccccc4)CC3)c2=O)cc1 [CBK153652]	112
CC1=NN(c2ccc([N+](=O)[O-])cc2)C(=O)/C1=C/NCc1ccc(S(N)(=O)=O)cc1 [CBK262670]	111
NC(=O)CN1CCC2(CC1)CN(CC(N)=O)c1ccccc12 [CBK126789]	100
CCC(=O)N(C)C1CCN(c2ncnc3ccccc23)CC1 [CBK304829]	91.8
CCC(C)(C)C(=O)Nc1ccc(Cl)nc1 [CBK091334]	96.4
COc1cc(S(=O)(=O)Oc2ccc(OCc3ccccc3)cc2)ccc1Cl [CBK264132]	92.2
O=[N+]([O-])c1ccc(N2CCN(Cc3c(O)ccc4ccccc34)CC2)cc1NCc1ccccc1 [CBK268408]	105
Fc1ccccc1CN1CCC(Oc2cncc(OCCN3CCOCC3)n2)C1 (centres unmarked) [CBK084479]	94.9
Cc1ccccc1/N=C1/NC(=O)/C(=C/c2cccn2-c2ccc(S(N)(=O)=O)cc2)S1 [CBK265681]	107
CCN1CCN(C(=O)CCNC(=O)c2cccc(OC)c2)CC1 [CBK307580]	96.6
CCOC(=O)c1cc(C(N)=S)c(C)nc1C(F)(F)F [CBK028734]	92.8
CCN(Cc1ccccc1)C(=O)Nc1ccc(C)cc1 [CBK155248]	99.1
CC(Sc1nncs1)C(=O)N1CCCc2ccccc21 (centres unmarked) [CBK304871]	94.6
COc1cc(-c2nc(N)n[nH]2)cc(OC)c1OC [CBK288077]	103
Cc1noc(C)c1NC(=O)c1nccc2ccccc12 [CBK200310]	93.3
COC(=O)c1ccc(NC(=O)c2ccccc2-c2ccccc2C(=O)O)cc1 [CBK265759]	110
COCC(C)NC(=O)Cn1c(C(F)F)cc2cccnc21 (centres unmarked) [CBK285010]	105

Structure (SMILES)	viability at 28.5 h, 10 µM [%]
COC[C@H]1CCCN1C(=O)CC[C@H]1CNC(=O)[C@@H]2[C@@H](CCN2C(C)C)N1C [CBK289038]	103
CNC(=O)c1sc2ccccc2c1C1CCN(C(=O)CCN(C)c2ccc(F)cc2)C1 (centres unmarked) [CBK285878]	96.5
COc1ccc(C(NC(=O)NNC(=O)Cc2ccc(Cl)cc2)c2ccccc2C)cn1 (centres unmarked) [CBK083660]	96.1
CC(C)(C)CC(C)(C)NC(=O)NCCc1cccs1 [CBK038697]	91.8
COc1ccc(/C=N/NC(=O)c2cc[nH]n2)cc1CSc1nc2ccccc2s1 [CBK263734]	103
CC(=O)N1CCC(C(=O)NC(=O)NCCc2ccccc2)CC1 [CBK034851]	96.9
Cc1ccccc1OC(C)C(=O)Nc1ccccc1C(=O)N1CCOCC1 (centres unmarked) [CBK269753]	103
COc1ccc(C(=O)C2=C(O)C(=O)N(CCCN(C)C)C2c2ccncc2)cc1Cl (centres unmarked) [CBK266529]	109
CC(Sc1nc2ccc(Cl)cc2o1)C(=O)N1CCOCC1 (centres unmarked) [CBK305164]	92.1
CN(C)c1cccc(-c2cc(N3CCN(c4ccccn4)CC3)ncn2)c1 [CBK037825]	104
O=C(c1ccco1)N1CCN(c2cncc(-c3ccc(F)cc3F)n2)CC1 [CBK065818]	93.7
Cc1nn(C)cc1C(=O)N1CCCC1c1nc2ccccc2[nH]1 (centres unmarked) [CBK282371]	84.7
COc1ccc(Cl)cc1NC(=O)CN(c1cc(C(F)(F)F)ccc1Cl)S(C)(=O)=O [CBK264724]	82.5
CN(C)S(=O)(=O)c1ccc(C(=O)C2=C(O)C(=O)N(Cc3cccnc3)C2c2ccncc2)cc1 (centres unmarked) [CBK264714]	95.4
Cc1ccc2nc(-c3ccccc3)c(CN3CCCC3)c(O)c2c1 [CBK264736]	106
CSCCN1CCC2(CC1)CN(C(=O)C(C)C)c1ccccc12 [CBK131473]	101
CC1CCC(C(N)=O)CN1C(=O)c1csc(COc2ccc(Cl)cc2)n1 (centres unmarked) [CBK304948]	102
Cc1cc(N)cc(C)c1O [CBK012062C]	89.9
c1cn2cc(-c3ccoc3)nc(NC3CC3)c2n1 [CBK066720]	102

Same assay, conditions: human, hela cells, % viability, bulk resorufin, single well

Structure (SMILES)	viability at 28.5 h, 10 µM [%]
N#CC(CCN1CCOCC1)(c1ccccc1)c1ccccc1 [CBK263317]	90.5
Fc1cc(F)cc(-c2ccc3c(c2)COC2(CCNCC2)O3)c1 [CBK060915]	87.7
CCOC(=O)N1CCC2(CC1)Oc1ccc(Br)cc1O2 [CBK089365]	80.9
